{"source": "patent US6409508B1", "about": "“Use of ozone for the treatment of dental caries” (Natural White, priority 1998, dated 2002)", "type_in_all_cases": "cell-based", "key": {"[1]": {"test_system": "Streptococcus sobrinus; TH 21", "assay": "Ozone on S. sobrinus on saliva coated glass beads", "settings": "10 seconds of ozone applied to glass beads", "description": "(§1) The aims of these studies were to evaluate the efficiency of ozone on primary root caries and associated micro-organisms (Streptococcus sobrinus; TH 21, Streptococcus mutans; NCTC 10449). In study 1, 40 soft primary root carious lesions (PRCLs) from freshly extracted teeth were used and randomly divided into two groups to test the exposure to ozone for either 10 or 20 seconds. There was a significant (p<0.001) difference (Mean±SE) between the control samples for. either 10 seconds (log10 5.91±0.15) or 20 seconds (log10 6.18±0.21) and ozone treated samples for either 10 seconds (log10 3.57±0.37) or 20 seconds (log10 3.77±0.42). In study 2, 40 sterile saliva coated glass beads were put into bijoux bottles with 3 mls of Todd Hewitt broth for control and test groups. S. sobrinus and S. mutans were inoculated and incubated anaerobically overnight. Each glass bead was washed with 2 mls of PBS. Immediately, 10 seconds of ozone was applied to the glass beads in the test groups. Subsequently, each glass bead in the test and control groups was placed in 3 mls of Todd Hewitt Broth with six more sterile glass beads and were vortexed for 30 seconds. After decimal dilutions, 100 ml aliquots were spread on blood agar plates supplemented with 5% (V/V) horse blood and placed in an anaerobic chamber at 37° C. for two days. The number of each colony type was counted and calculated. […]"}, "[2]": {"test_system": "micro-organisms in primary root carious lesions (PRCL)", "assay": "Ozone effect on microflora from primary root caries ex-vivo", "settings": "for Mean ± SE of total cfu (Log10): after 10 seconds of ozone treatment", "description": "Primary root carious lesions (PRCL) are a major clinical problem. The aim of this study was to establish if ozone could achieve effective microbial killing in PRCL. An ozone producing generator (Purezone Ltd., Ipswich, U.K.) was used in this ex-vivo study assessing the use of ozone on PRCL. In this study, soft PRCL requiring restoration were used as these are the most severe type of lesion found in humans. 20 freshly extracted teeth with PRCL requiring restoration were used. After plaque removal using a hand held standard fine nylon fibre sterile toothbrush with sterile water as a lubricant to cleanse the surface, each tooth was then isolated using sterile cotton wool rolls and dried using a dry sterile cotton wool roll. […] Each sample was weighed and immediately placed in 1 ml of Fastidious Anaerobe Broth (FAB). To each 1 ml of FAB containing a biopsy of carious or ozone treated carious dentine, sterile glass beads were added. They were vortexed for 30 seconds to facilitate the extraction of any micro-organisms from the carious dentine and disperse any aggregates. After decimal dilution with FAB, […] of these was spread on Fastidious Anaerobe Agar (LabM. Bury, Lancs., U.K.) supplemented with 5% (V/V) horse blood in an anaerobic chamber at 37° C. for four days. The mean±SE number of each colony type was counted and calculated.\nThe procedure of Example 2 was repeated except that ozonised water was applied to the lesion for 20 seconds.\nas §1, with “After decimal dilutions, 100 ml aliquots were spread on blood agar plates supplemented with 5% (V/V) horse blood and placed in an anaerobic chamber at 37° C. for two days.” left out"}, "[3]": {"test_system": "Streptococcus mutans; NCTC 10449", "assay": "Ozone on S. mutans on saliva coated glass beads", "settings": "10 seconds of ozone applied to glass beads", "description": "as §1"}}}
{"smiles": "O=[O+][O-]", "note": "[Ozone, ozone]", "values": [{"measurement": "colony count (log10, Mean±SE)", "setting": "[1]", "result": "1.09±0.36", "unit": "log10"}, {"measurement": "percentage of micro-organisms killed", "setting": "[2]; 10 seconds of ozone treatment", "result": "more than 99%"}, {"measurement": "Mean ± SE of total cfu (Log10)", "setting": "[2]; soft PRCL, freshly extracted teeth", "result": "3.57 ± 0.37", "unit": "Log10"}, {"measurement": "Mean ± SE of total cfu (Log10)", "setting": "[2]; soft PRCL, freshly extracted teeth, listed as ozone", "result": "3.57±0.37", "unit": "Log10"}, {"measurement": "Mean ± SE of total cfu (log10)", "setting": "[2]; after 20 seconds of ozone (ozonised water) treatment, soft PRCL, freshly extracted teeth", "result": "3.77±0.42", "unit": "log10"}, {"measurement": "colony count (log, Mean±SE)", "setting": "[3]", "result": "1.01±0.27", "unit": "log"}]}
